According to publication PMC7470033, “In vitro inhibitory effect of lysionotin on the activity of cytochrome P450 enzymes” (Pharmaceutical Biology, 2020):

Tests used:
[1] = biological target: T1, CYP2C8 (Homo sapiens, UniProt P10632); experiment: Time-dependent inhibition study of CYP2C8 in HLMs; type: in vitro ADME; conditions: 20 μM lysionotin, 0–30 min
T1 construct: Pooled HLMs were purchased from BD Biosciences Discovery Labware; tissue BD Biosciences Discovery Labware; host or cells: pooled human liver microsomes
T1 sequence (P10632 1-490): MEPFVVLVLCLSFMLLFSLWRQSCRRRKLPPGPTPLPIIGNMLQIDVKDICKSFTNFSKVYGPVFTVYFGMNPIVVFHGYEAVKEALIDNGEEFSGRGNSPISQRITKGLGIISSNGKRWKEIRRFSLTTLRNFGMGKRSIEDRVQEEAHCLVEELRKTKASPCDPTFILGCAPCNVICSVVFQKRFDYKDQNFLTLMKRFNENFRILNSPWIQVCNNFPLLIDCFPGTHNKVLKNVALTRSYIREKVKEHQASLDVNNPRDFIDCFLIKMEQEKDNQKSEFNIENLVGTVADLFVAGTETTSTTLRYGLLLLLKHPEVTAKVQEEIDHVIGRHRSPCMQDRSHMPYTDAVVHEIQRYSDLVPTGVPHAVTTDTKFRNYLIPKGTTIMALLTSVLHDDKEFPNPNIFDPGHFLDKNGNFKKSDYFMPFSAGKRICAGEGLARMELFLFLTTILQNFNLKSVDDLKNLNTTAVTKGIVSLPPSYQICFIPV
Protocol: (§1) To determine whether lysionotin could inhibit the activity of CYP3A4, 2C19, and 2C8 in a time-dependent manner, lysionotin (20 μM) was pre-incubated with HLMs (1 mg/mL) in the presence of an NADPH-generating system for 30 min at 37 °C. After incubation, an aliquot (20 μL) was transferred to another incubation tube (final volume 200 μL) containing an NADPH-generating system and probe substrates whose final concentrations were approximate to Km. Then, further incubations were performed to measure the residual activity. After being incubated for 0, 5, 10, 15, and 30 min, the reactions were terminated by adding a 100 μL acetonitrile internal standard mix and then placed on ice; the corresponding metabolites were determined by HPLC.

[2] = biological target: T2, CYP2E1 (Homo sapiens, UniProt P05181); experiment: CYP2E1 inhibition in pooled human liver microsomes (chlorzoxazone 6-hydroxylation); type: in vitro ADME; conditions: 100 μM lysionotin, pooled HLMs, p > 0.05
T2 construct: Pooled HLMs were purchased from BD Biosciences Discovery Labware; tissue BD Biosciences Discovery Labware; host or cells: pooled human liver microsomes
Protocol: (§2) In this study, lysionotin was incubated with eight CYP isoforms (i.e., 1A2, 3A4, 2A6, 2E1, 2D6, 2C9, 2C19 and 2C8) in pooled human liver microsomes to investigate the interaction between lysionotin and CYPs, which can provide direct evidence for the effect of lysionotin on the activity of CYPs. In vitro, phenacetin (CYP1A2), testosterone (CYP3A4), coumarin (CYP2A6), chlorzoxazone (CYP2E1), dextromethorphan (CYP2D6), diclofenac (CYP2C9), S-mephenytoin (CYP2C19) and paclitaxel (CYP2C8) were used as probe substrates to determine the effects of lysionotin on eight CYP enzymes. In addition, enzyme kinetic studies were conducted to determine the inhibition model of lysionotin on CYP enzymes. […]
(§3) The concentration of lysionotin was 100 μM, and the positive inhibitor concentrations were as follows: 10 μM furafylline for CYP1A2, 1 μM ketoconazole for CYP3A4, 10 μM tranylcypromine for CYP2A6, 50 μM clomethiazole for CYP2E1, 10 μM quinidine for CYP2D6, 10 μM sulfaphenazole for CYP2C9, 50 μM tranylcypromine for CYP2C19, 5 μM montelukast for CYP2C8. […] The instrument used in this study was Agilent 1260 series instrument with DAD and FLD detector, and the quantitative assay for the corresponding metabolites was performed as previously reported and the detection conditions are summarised in Table 2 (He et al. [2015]; Lang et al. [2017]; Zhang et al. [2017]). […]

[3] = biological target: T3, CYP3A4 (Homo sapiens, UniProt P08684); experiment: CYP3A4 inhibition in pooled human liver microsomes (testosterone 6β-hydroxylation); type: in vitro ADME
T3 construct: Pooled HLMs were purchased from BD Biosciences Discovery Labware; tissue BD Biosciences Discovery Labware; host or cells: pooled human liver microsomes
Protocol: (§4) In this study, lysionotin was incubated with eight CYP isoforms (i.e., 1A2, 3A4, 2A6, 2E1, 2D6, 2C9, 2C19 and 2C8) in pooled human liver microsomes to investigate the interaction between lysionotin and CYPs, which can provide direct evidence for the effect of lysionotin on the activity of CYPs. In vitro, phenacetin (CYP1A2), testosterone (CYP3A4), coumarin (CYP2A6), chlorzoxazone (CYP2E1), dextromethorphan (CYP2D6), diclofenac (CYP2C9), S-mephenytoin (CYP2C19) and paclitaxel (CYP2C8) were used as probe substrates to determine the effects of lysionotin on eight CYP enzymes. In addition, enzyme kinetic studies were conducted to determine the inhibition model of lysionotin on CYP enzymes.
(§5) All incubations were performed in triplicate, and the mean values were utilised. The typical incubation systems contained 100 mM potassium phosphate buffer (pH 7.4), NADPH generating system (1 mM NADP^+, 10 mM glucose-6-phosphate, 1 U/mL of glucose-6-phosphate dehydrogenase, and 4 mM MgCl2), the appropriate concentration of HLMs, a corresponding probe substrate and lysionotin (or positive inhibitor for different probe reactions) in a final volume of 200 μL.
as §3
(§6) The enzyme kinetic parameters for the probe reaction were estimated from the best fit line, using least-squares linear regression of the inverse substrate concentration versus the inverse velocity (Lineweaver-Burk plots), and the mean values were used to calculate Vmax and Km. Inhibition data from the experiments that were conducted using multiple compound concentrations were represented by Dixon plots, and inhibition constant (Ki) values were calculated using non-linear regression according to the following equation: v=(VmaxS)/(Km(1+I/Ki+S)for competitive inhibition v=(VmaxS)/[(Km+S((1+I/Ki)] for non-competitive inhibition where I is the concentration of the compound, Ki is the inhibition constant, S is the concentration of the substrate, and Km is the substrate concentration at half the maximum velocity (Vmax) of the reaction. The mechanism of the inhibition was inspected using the Lineweaver-Burk plots and the enzyme inhibition models. […]

[4] = biological target: T4, CYP2A6 (Homo sapiens, UniProt P11509); experiment: CYP2A6 inhibition in pooled human liver microsomes (coumarin 7-hydroxylation); type: in vitro ADME; conditions: 100 μM lysionotin, pooled HLMs, p > 0.05
T4 construct: Pooled HLMs were purchased from BD Biosciences Discovery Labware; tissue BD Biosciences Discovery Labware; host or cells: pooled human liver microsomes
T4 sequence (P11509 1-494): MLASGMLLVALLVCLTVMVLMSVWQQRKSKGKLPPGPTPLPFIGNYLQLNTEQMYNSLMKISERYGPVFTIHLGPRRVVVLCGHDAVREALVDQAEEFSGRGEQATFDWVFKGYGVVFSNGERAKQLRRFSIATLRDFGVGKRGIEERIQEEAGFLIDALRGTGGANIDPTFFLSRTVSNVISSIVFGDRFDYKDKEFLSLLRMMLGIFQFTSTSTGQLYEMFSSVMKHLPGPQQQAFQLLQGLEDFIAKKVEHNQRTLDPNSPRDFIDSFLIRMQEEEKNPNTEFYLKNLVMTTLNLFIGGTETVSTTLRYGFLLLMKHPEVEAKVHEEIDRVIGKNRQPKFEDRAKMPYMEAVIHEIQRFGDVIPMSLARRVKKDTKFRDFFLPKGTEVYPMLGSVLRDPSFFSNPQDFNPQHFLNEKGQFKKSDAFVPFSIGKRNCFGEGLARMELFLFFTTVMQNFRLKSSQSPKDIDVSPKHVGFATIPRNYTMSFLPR
Protocol: as §2, §3

[5] = biological target: T5, CYP2C19 (Homo sapiens, UniProt P33261); experiment: Time-dependent inhibition study of CYP2C19 in HLMs; type: in vitro ADME; conditions: 20 μM lysionotin, 0–30 min
T5 construct: Pooled HLMs were purchased from BD Biosciences Discovery Labware; tissue BD Biosciences Discovery Labware; host or cells: pooled human liver microsomes
Protocol: as §1

[6] = biological target: T6, CYP1A2 (Homo sapiens, UniProt P05177); experiment: CYP1A2 inhibition in pooled human liver microsomes (phenacetin O-deethylation); type: in vitro ADME; conditions: 100 μM lysionotin, pooled HLMs, p > 0.05
T6 construct: Pooled HLMs were purchased from BD Biosciences Discovery Labware; tissue BD Biosciences Discovery Labware; host or cells: pooled human liver microsomes
T6 sequence (P05177 1-516): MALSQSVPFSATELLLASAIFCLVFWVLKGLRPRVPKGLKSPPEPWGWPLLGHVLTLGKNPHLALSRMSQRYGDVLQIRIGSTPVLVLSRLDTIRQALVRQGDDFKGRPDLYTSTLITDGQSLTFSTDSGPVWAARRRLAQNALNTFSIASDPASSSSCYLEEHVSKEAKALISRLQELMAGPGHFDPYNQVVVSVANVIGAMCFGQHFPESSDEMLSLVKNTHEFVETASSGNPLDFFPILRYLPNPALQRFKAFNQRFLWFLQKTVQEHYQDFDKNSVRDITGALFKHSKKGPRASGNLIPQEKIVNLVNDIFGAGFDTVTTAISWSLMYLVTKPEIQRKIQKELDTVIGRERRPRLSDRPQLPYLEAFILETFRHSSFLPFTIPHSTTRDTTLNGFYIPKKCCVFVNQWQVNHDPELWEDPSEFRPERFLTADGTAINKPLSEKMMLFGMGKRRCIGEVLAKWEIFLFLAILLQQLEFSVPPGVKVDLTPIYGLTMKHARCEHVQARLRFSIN
Protocol: as §2, §3

[7] = biological target: T5, CYP2C19; experiment: CYP2C19 inhibition in pooled human liver microsomes (S-mephenytoin 4-hydroxylation); type: in vitro ADME; conditions: for inhibition model of CYP2C19: Lineweaver-Burk plots
Protocol: as §4, §5
(§7) The concentration of lysionotin was 100 μM, and the positive inhibitor concentrations were as follows: 10 μM furafylline for CYP1A2, 1 μM ketoconazole for CYP3A4, 10 μM tranylcypromine for CYP2A6, 50 μM clomethiazole for CYP2E1, 10 μM quinidine for CYP2D6, 10 μM sulfaphenazole for CYP2C9, 50 μM tranylcypromine for CYP2C19, 5 μM montelukast for CYP2C8. Probe substrates, positive inhibitors (except for dextromethorphan and quinidine, which were dissolved in water), and lysionotin were dissolved in methanol, with a final concentration of 1% (v/v), and 1% neat methanol was added to the incubations without inhibitor. There was a 3 min preincubation period (at 37 °C) before the reaction was initiated by adding an NADPH-generating system. The reaction was terminated by adding a 100 μL acetonitrile (10% trichloroacetic acid for CYP2A6) internal standard mix, and the solution was placed on ice. The mixture was centrifuged at 12,000 rpm for 10 min, and an aliquot (50 μL) of supernatant was transferred for HPLC analysis. The instrument used in this study was Agilent 1260 series instrument with DAD and FLD detector, and the quantitative assay for the corresponding metabolites was performed as previously reported and the detection conditions are summarised in Table 2 (He et al. [2015]; Lang et al. [2017]; Zhang et al. [2017]). […]
as §6

[8] = biological target: T1, CYP2C8; experiment: CYP2C8 inhibition in pooled human liver microsomes (paclitaxel 6α-hydroxylation); type: in vitro ADME; conditions: for inhibition model of CYP2C8: Lineweaver-Burk plots
Protocol: as §4, §5, §7, §6

[9] = biological target: T7, CYP2D6 (Homo sapiens, UniProt P10635); experiment: CYP2D6 inhibition in pooled human liver microsomes (dextromethorphan O-demethylation); type: in vitro ADME; conditions: 100 μM lysionotin, pooled HLMs, p > 0.05
T7 construct: Pooled HLMs were purchased from BD Biosciences Discovery Labware; tissue BD Biosciences Discovery Labware; host or cells: pooled human liver microsomes
Protocol: as §2, §3

[10] = biological target: T8, CYP2C9 (Homo sapiens, UniProt P11712); experiment: CYP2C9 inhibition in pooled human liver microsomes (diclofenac 4′-hydroxylation); type: in vitro ADME; conditions: 100 μM lysionotin, pooled HLMs, p > 0.05
T8 construct: Pooled HLMs were purchased from BD Biosciences Discovery Labware; tissue BD Biosciences Discovery Labware; host or cells: pooled human liver microsomes
Protocol: as §2, §3

[11] = biological target: T3, CYP3A4; experiment: Time-dependent inhibition study of CYP3A4 in HLMs; type: in vitro ADME
Protocol: as §1
To determine the KI and Kinact values for the inactivation of CYP3A4, the incubations were conducted using higher probe substrate concentrations (approximately 4-fold Km values) and various concentrations of lysionotin (0–50 μM) after different preincubation times (0–30 min), with a two-step incubation scheme, as described above. The value of KI and Kinact was calculated with the equation 1/Kobs = KI/Kinact*1/[I] + 1/Kinact. Where Kobs is the pseudo-first-order rate constant of inactivation at inactivated concentration [I], Kinact is the maximum inactivation rate (a theoretical value that cannot be experimentally observed), and KI is the inactivated concentration when the rate of inactivation reaches half of Kinact.

[12] = parameters: method as in Liu et al. [2013]; conditions: oral administration of 50 mg/kg, ref Liu et al. [2013]; cited from earlier work

T5 sequence (P33261 whole entry): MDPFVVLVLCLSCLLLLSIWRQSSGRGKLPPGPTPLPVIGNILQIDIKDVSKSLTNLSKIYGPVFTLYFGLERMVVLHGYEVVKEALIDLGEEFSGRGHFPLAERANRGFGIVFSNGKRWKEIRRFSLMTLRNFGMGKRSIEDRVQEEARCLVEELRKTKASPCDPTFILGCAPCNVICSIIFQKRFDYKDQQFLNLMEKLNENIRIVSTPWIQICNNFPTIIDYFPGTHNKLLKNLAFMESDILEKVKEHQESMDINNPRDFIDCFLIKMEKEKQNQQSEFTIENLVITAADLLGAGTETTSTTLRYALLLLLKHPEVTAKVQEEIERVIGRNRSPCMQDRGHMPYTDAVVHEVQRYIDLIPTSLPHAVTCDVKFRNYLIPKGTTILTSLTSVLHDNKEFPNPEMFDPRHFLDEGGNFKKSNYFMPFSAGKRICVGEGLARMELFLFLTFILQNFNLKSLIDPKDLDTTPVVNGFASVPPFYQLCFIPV
T3 sequence (P08684 whole entry): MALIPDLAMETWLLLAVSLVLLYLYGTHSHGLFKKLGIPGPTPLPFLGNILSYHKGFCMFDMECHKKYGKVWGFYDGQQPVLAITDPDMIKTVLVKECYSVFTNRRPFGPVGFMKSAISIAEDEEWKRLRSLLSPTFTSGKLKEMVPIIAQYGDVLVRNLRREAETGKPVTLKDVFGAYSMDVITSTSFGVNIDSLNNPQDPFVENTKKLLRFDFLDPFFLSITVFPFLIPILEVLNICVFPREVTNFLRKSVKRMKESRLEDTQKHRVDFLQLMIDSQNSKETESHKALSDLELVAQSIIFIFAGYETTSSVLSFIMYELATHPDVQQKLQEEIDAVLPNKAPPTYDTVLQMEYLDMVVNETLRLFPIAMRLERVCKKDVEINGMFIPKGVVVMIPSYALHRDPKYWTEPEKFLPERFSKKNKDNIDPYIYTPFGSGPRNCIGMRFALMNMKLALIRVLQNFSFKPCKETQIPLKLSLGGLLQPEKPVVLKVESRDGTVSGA
T7 sequence (P10635 whole entry): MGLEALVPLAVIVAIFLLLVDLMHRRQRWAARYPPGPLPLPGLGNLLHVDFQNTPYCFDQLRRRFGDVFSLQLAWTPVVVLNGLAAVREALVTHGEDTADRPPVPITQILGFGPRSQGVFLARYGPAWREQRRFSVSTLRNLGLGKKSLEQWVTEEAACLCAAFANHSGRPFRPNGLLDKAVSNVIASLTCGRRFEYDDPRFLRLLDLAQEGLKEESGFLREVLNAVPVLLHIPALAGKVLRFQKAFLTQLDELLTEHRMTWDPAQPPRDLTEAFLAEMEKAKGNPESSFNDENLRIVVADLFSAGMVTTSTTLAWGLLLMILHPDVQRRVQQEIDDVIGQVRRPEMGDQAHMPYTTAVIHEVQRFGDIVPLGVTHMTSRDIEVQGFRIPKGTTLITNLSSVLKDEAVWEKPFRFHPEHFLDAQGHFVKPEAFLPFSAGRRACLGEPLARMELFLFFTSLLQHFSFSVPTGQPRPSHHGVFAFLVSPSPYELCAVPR
T8 sequence (P11712 whole entry): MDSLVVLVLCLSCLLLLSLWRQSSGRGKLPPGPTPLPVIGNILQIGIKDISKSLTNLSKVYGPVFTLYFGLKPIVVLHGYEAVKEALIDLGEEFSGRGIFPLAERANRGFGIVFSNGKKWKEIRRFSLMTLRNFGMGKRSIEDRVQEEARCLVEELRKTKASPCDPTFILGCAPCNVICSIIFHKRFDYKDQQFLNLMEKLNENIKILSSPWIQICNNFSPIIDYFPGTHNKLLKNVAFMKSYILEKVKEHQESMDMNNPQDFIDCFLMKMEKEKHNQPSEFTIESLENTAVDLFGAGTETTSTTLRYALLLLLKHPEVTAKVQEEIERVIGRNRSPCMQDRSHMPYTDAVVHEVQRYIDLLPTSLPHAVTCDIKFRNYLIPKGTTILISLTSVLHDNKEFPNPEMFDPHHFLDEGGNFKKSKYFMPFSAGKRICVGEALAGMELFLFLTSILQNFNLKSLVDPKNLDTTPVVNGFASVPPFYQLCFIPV
T2 sequence (P05181 whole entry): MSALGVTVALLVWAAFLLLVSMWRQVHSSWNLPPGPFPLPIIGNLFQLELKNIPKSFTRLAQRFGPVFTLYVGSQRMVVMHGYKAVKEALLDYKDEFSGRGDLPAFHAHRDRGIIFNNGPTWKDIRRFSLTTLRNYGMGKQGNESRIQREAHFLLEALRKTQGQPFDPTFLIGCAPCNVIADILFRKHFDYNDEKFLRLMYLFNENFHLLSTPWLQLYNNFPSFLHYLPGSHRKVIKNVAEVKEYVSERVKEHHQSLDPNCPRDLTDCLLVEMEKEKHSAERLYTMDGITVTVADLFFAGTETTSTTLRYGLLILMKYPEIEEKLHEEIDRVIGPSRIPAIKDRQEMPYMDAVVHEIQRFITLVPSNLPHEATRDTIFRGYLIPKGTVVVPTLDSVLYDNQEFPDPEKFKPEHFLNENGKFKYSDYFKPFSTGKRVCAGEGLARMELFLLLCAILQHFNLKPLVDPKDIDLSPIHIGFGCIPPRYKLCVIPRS

Structure (SMILES): COc1ccc(-c2cc(=O)c3c(O)c(OC)c(O)c(OC)c3o2)cc1 [lysionotin, Lysionotin]
- effect of incubation time on the inhibition of CYP2C8 [1]: relatively stable
- effect on the activity of CYP2E1 [2]: not affected
- activity of CYP3A4 decreased by ([3]; 100 μM lysionotin, pooled HLMs): 86.33%
- inhibition model of CYP3A4 ([3]; Lineweaver-Burk plots): non-competitive
- Ki ([3]; non-competitive model, testosterone 20–100 μM, pooled HLM): 6.83 µM
- IC50 ([3]; pooled HLMs, testosterone 6β-hydroxylation): 13.8 µM
- effect on the activity of CYP2A6 [4]: not affected
- effect of incubation time on the inhibition of CYP2C19 [5]: relatively stable
- effect on the activity of CYP1A2 [6]: not affected
- activity of CYP2C19 decreased by ([7]; 100 μM lysionotin, pooled HLMs): 74.86%
- inhibition model of CYP2C19 [7]: competitively
- inhibition model of CYP2C19 ([7]; listed as Lysionotin): competitive
- Ki ([7]; competitive model, mephenytoin 50–200 μM, lysionotin 0–50 μM, pooled HLM): 12.4 µM
- IC50 ([7]; pooled HLMs, S-mephenytoin 4-hydroxylation): 25 µM
- activity of CYP2C8 decreased by ([8]; 100 μM lysionotin, pooled HLMs): 67.22%
- inhibition model of CYP2C8 [8]: competitively
- inhibition model of CYP2C8 ([8]; listed as Lysionotin): competitive
- Ki ([8]; competitive model, paclitaxel 5–20 μM, lysionotin 0–50 μM, pooled HLM): 14.5 µM
- IC50 ([8]; pooled HLMs, paclitaxel 6α-hydroxylation): 30 µM
- effect on the activity of CYP2D6 [9]: not affected
- effect on the activity of CYP2C9 [10]: not affected
- effect of incubation time on the inhibition of CYP3A4 ([11]; 20 μM lysionotin, 0–30 min): time-dependent
- CYP3A4 inactivated every minute ([11]; during incubation with lysionotin): about 4.8%
- KI (inactivation) ([11]; human, human liver microsomes, probe testosterone (approximately 4-fold Km), lysionotin 0–50 μM, preincubation 0–30 min, NADPH, printed as KI/Kinact): 6.62 µM
- Kinact for inactivation of CYP3A4 ([11]; lysionotin 0–50 μM, preincubation 0–30 min, NADPH, printed as KI/Kinact): 0.048 min⁻¹
- Cmax in rat plasma [12]: 58.4 ± 10.3 ng/mL
